Where a name gives a salt, the structure may show the parent alone.
Legend:
[1] = target: mitochondrial RNA polymerase (POLRMT) (Mus musculus, UniProt Q8BKF1); experiment: Homogeneous TR-FRET assay for mitochondrial transcription activity; format: biochemical; details: homogeneous TR-FRET assay according to Example 4
Summary of the method: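 Read-out is TR-FRET (ex 340, em 665 nm) from two adjacent labelled DNA probes annealing to the 407 bp transcript after EDTA/700 mM NaCl stop. Reaction: murine POLRMT, TFAM, TFB2M and LSP plasmid template, compound 10 μM or serial dilution, 10 min rt preincubation, 500 μM each nucleotide, 2 h rt.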

[2] = test system: mitochondrial transcription (7S RNA) in HeLa cells; experiment: Quantitative real time-PCR assay of inhibition of mitochondrial transcription (7S RNA) in HeLa cells; format: cell-based; details: Homo sapiens, 4 h compound incubation, according to Example 5, read-out: cellular qPCR assay
Method: Quantitative real-time PCR (qRT-PCR), based on the TaqMan™ (Thermo Fisher Scientific, Waltham Mass.) technology, was carried out essentially as described in Held et al. (1996). HeLa cells were plated one day before compound treatment in RPMI medium supplemented with 10% Fetal Calf Serum and 2 mM L-glutamine. Cells were incubated with dilution series of compounds or vehicle (DMSO) for 4 h, prior to harvest and extraction of the RNA using the RNeasy Mini Kit (Qiagen, Hilden D), according to the manufacturer's instructions. RNA concentrations were measured spectroscopically, using a NanoDrop-2000 (Thermo Fisher Scientific, Waltham Mass.) and normalized prior to cDNA synthesis, using a ‘High-Capacity cDNA Reverse Transcription Kit’ (Thermo Fisher Scientific, Waltham Mass.). qRT-PCR was carried out using the ‘TaqMan Fast Advance Master Mix’ (Thermo Fisher Scientific, Waltham Mass.) on a 7500 Fast Real-Time PCR machine (Applied Biosystems, Foster City Calif.)
For these measurements, three genes were used to compare the effect of the scrutinized compounds in relation to their concentration. The POLRMT-gene was used to detect potential influences on nuclear transcription. Mitochondrial transcription in vivo was monitored by measurements 7S RNA. The TBP (TATA-box binding protein) gene was employed as the control (housekeeping gene) during qRT-PCR. The short-lived mitochondrial 7S RNA, which is not post-transcriptionally stabilized, allowed us to monitor rapid changes in mitochondrial transcription activity following compound addition. Biological triplicates were analyzed using the comparative CT Method (ΔΔCt) method (Bubner and Baldwin, 2004) and reported as Rq % values (Rq=Relative quantification=2−ΔΔCt).

Chain of mitochondrial RNA polymerase (POLRMT) (Q8BKF1 42-1207): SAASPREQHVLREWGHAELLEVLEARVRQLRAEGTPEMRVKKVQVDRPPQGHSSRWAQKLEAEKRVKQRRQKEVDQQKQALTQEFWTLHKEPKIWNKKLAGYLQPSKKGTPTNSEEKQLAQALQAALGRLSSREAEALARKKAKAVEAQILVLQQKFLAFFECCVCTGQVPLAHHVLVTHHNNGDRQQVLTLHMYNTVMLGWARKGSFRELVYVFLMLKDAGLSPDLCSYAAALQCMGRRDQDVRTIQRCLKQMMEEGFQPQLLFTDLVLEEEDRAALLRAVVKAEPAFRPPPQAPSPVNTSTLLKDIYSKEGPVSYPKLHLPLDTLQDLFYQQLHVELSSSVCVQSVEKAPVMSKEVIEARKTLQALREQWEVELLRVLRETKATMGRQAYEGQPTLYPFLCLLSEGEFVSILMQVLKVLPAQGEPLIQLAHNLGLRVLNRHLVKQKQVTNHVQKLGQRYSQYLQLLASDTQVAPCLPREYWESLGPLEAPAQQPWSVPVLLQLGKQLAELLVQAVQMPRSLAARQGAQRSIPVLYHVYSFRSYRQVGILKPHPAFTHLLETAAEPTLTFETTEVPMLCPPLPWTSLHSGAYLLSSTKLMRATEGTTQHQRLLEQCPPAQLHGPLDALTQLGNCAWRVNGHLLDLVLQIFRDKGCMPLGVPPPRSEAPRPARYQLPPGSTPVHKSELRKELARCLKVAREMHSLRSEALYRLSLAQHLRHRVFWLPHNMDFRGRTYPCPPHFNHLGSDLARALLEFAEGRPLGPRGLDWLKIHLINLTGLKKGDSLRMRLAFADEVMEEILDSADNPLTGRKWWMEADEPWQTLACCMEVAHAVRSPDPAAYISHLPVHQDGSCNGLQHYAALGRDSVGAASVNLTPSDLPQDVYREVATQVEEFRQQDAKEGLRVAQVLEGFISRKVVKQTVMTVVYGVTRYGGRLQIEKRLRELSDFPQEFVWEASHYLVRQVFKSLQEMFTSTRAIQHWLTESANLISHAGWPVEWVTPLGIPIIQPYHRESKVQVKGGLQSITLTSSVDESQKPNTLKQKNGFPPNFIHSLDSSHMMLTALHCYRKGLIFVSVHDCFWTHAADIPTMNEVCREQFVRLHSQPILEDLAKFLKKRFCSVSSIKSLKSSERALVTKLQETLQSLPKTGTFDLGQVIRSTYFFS

Row | Structure (SMILES) | IC50 [1] [nM] | IC50 [2] [nM]
1 | C[C@@H](Oc1ccc2c(-c3ccc(F)cc3Cl)ccnc2c1)C(=O)N1CCC[C@@H](CC(=O)O)C1 [Compound 22, 2-[(3S)-1-[(2R)-2-[[4-(2-chloro-4-fluoro-phenyl)-7-quinolyl]oxy]propanoyl]-3-piperidyl]acetic acid] | 20 to 100 | 50 to 500
2 | Cc1cccc(C)c1-c1ccnc2cc(O[C@H](C)C(=O)N3CCC[C@@H](CC(=O)O)C3)ccc12 [Compound 5, 2-[(3S)-1-[(2R)-2-[[4-(2,6-dimethylphenyl)-7-quinolyl]oxy]propanoyl]-3-piperidyl]acetic acid] | < 20 | < 10
3 | C[C@@H](Oc1ccc2c(-c3ccc(F)cc3Cl)ccnc2c1)C(=O)N1CC[C@H](CC(=O)O)C1 [Compound 40, 2-[(3R)-1-[(2R)-2-[[4-(2-chloro-4-fluoro-phenyl)-7-quinolyl]oxy]propanoyl]pyrrolidin-3-yl]acetic acid] | 100 to 1000 | 50 to 500
4 | C[C@@H](Oc1ccc2c(-c3ccc(F)cc3Cl)cc(Cl)nc2c1)C(=O)N1CCC[C@H](C(N)=O)C1 [Compound 81, (3S)-1-[(2R)-2-[[2-chloro-4-(2-chloro-4-fluoro-phenyl)-7-quinolyl]oxy]propanoyl]piperidine-3-carboxamide] | 1000 to 10000 | 50 to 500
5 | Cc1cc(-c2ccccc2C)c2ccc(O[C@H](C)C(=O)N3CCC[C@H](C(=O)O)C3)cc2n1 [Compound 31, (3S)-1-[(2R)-2-[[2-methyl-4-(o-tolyl)-7-quinolyl]oxy]propanoyl]piperidine-3-carboxylic acid] | 100 to 1000 | < 10
6 | C[C@@H](Oc1ccc2c(-c3ccc(F)cc3Cl)ccnc2c1)C(=O)Nc1ccc(C(=O)O)cc1 [Compound 60, 4-[[(2R)-2-[[4-(2-chloro-4-fluoro-phenyl)-7-quinolyl]oxy]propanoyl]amino]benzoic acid] | 100 to 1000 | 50 to 500
7 | Cc1cc(-c2ccc(F)cc2Cl)c2ccc(O[C@H](C)C(=O)N3CCC[C@@H](S(N)(=O)=O)C3)cc2n1 [Compound 115, (3R)-1-[(2R)-2-[[4-(2-chloro-4-fluoro-phenyl)-2-methyl-7-quinolyl]oxy]propanoyl]piperidine-3-sulfonamide] | 1000 to 10000 | 50 to 500
8 | CC(Oc1ccc2c(-c3ccccc3Cl)ccnc2c1)C(=O)N(C)C (stereo not drawn) [Compound 86, 2-[[4-(2-chlorophenyl)-7-quinolyl]oxy]-N,N-dimethyl-propanamide] | 1000 to 10000 | 50 to 500
9 | Cc1ccccc1-c1cc(Cl)nc2cc(O[C@H](C)C(=O)N3CCC[C@H](C(=O)O)C3)ccc12 [Compound 25, (3S)-1-[(2R)-2-[[2-chloro-4-(o-tolyl)-7-quinolyl]oxy]propanoyl]piperidine-3-carboxylic acid] | 20 to 100 | 10 to 50
10 | CCOC(=O)[C@H]1CCCN(C(=O)[C@@H](C)Oc2ccc3c(-c4ccccc4C)ccnc3c2)C1 [Compound 14, ethyl (3S)-1-[(2R)-2-[[4-(o-tolyl)-7-quinolyl]oxy]propanoyl]piperidine-3-carboxylate] | 20 to 100 | 50 to 500
11 | CCOC(=O)[C@H]1CCCN(C(=O)[C@@H](C)Oc2ccc3c(-c4ccccc4Cl)cc(F)nc3c2)C1 [Compound 41, ethyl (3S)-1-[(2R)-2-[[4-(2-chlorophenyl)-2-fluoro-7-quinolyl]oxy]propanoyl]piperidine-3-carboxylate] | 100 to 1000 | 500 to 5000
12 | C[C@@H](Oc1ccc2c(-c3ccccc3Cl)cc(Cl)nc2c1)C(=O)N1CCC[C@H](C(=O)O)C1 [Compound 34, (3S)-1-[(2R)-2-[[2-chloro-4-(2-chlorophenyl)-7-quinolyl]oxy]propanoyl]piperidine-3-carboxylic acid] | 100 to 1000 | 10 to 50
13 | C[C@@H](Oc1ccc2c(-c3ccccc3Cl)ccnc2c1)C(=O)N(C)C [Compound 88, (2R)-2-[[4-(2-chlorophenyl)-7-quinolyl]oxy]-N,N-dimethyl-propanamide] | 1000 to 10000 | 50 to 500
14 | Cc1cc(-c2c(C)cccc2C)c2ccc(O[C@H](C)C(=O)N3CCC[C@H](CC(=O)O)C3)cc2n1 [Compound 124, 2-[(3R)-1-[(2R)-2-[[4-(2,6-dimethylphenyl)-2-methyl-7-quinolyl]oxy]propanoyl]-3-piperidyl]acetic acid] | 100 to 1000 | 50 to 500
15 | C[C@@H](Oc1ccc2c(-c3ccc(F)cc3Cl)ccnc2c1)C(=O)NC(C)(C)C [Compound 47, (2R)-N-tert-butyl-2-[[4-(2-chloro-4-fluoro-phenyl)-7-quinolyl]oxy]propanamide] | 100 to 1000 | 10 to 50
16 | CC(C)OC(=O)[C@@H](C)Oc1ccc2c(-c3ccccc3Cl)ccnc2c1 [Compound 36, (R)-isopropyl 2-((4-(2-chlorophenyl)quinolin-7 yl)oxy)propanoate FA salt] | 100 to 1000 | 50 to 500

Continued, values first:

Row | IC50 [1] [nM] | IC50 [2] [nM] | Structure (SMILES)
17 | 100 to 1000 | 50 to 500 | C[C@@H](Oc1ccc2c(-c3ccc(F)cc3Cl)ccnc2c1)C(=O)N1CCC2(COC2)C1 [Compound 213, (2R)-2-[[4-(2-chloro-4-fluoro-phenyl)-7-quinolyl]oxy]-1-(2-oxa-7-azaspiro[3.4]octan-7-yl)propan-1-one]
18 | < 20 | < 10 | Cc1cc(F)cc(C)c1-c1ccnc2nc(O[C@H](C)C(=O)N3CCC[C@H](CC(=O)O)C3)ccc12 [Compound 221, 2-[(3R)-1-[(2R)-2-[[5-(4-fluoro-2,6-dimethyl-phenyl)-1,8-naphthyridin-2-yl]oxy]propanoyl]-3-piperidyl]acetic acid]
19 | 20 to 100 | 10 to 50 | C[C@@H](Oc1ccc2c(-c3ccc(F)cc3Cl)ccnc2c1)C(=O)N1CCCC(C2(C(=O)O)CC2)C1 (mixture of isomers) [Compound 194, 1-[1-[rac-(2R)-2-[[4-(2-chloro-4-fluoro-phenyl)-7-quinolyl]oxy]propanoyl]-3-piperidyl]cyclopropanecarboxylic acid]
20 | < 20 | < 10 | C[C@@H](Oc1ccc2c(-c3c(Cl)cc(F)cc3Cl)ccnc2c1)C(=O)N1CCCC2(CC2C(=O)O)C1 (mixture of isomers) [Compound 177, 5-[rac-(2R)-2-[[4-(2,6-dichloro-4-fluoro-phenyl)-7-quinolyl]oxy]propanoyl]-5-azaspiro[2.5]octane-2-carboxylic acid]
21 | 100 to 1000 | 50 to 500 | CC1CN(C(=O)[C@@H](C)Oc2ccc3c(-c4ccc(F)cc4Cl)ccnc3c2)CC(C)N1 (stereo partly drawn) [Compound 216, (2R)-2-[[4-(2-chloro-4-fluoro-phenyl)-7-quinolyl]oxy]-1-(3,5-dimethylpiperazin-1-yl)propan-1-one]
22 | 100 to 1000 | 50 to 500 | C[C@@H](Oc1ccc2c(-c3ccc(F)cc3Cl)ccnc2c1)C(=O)N1CC[C@@H](NC(=O)NC(C)(C)C)C1 [Compound 214, 1-tertbutyl-3-[(3R)-1-[(2R)-2-[[4-(2-chloro-4-fluoro-phenyl)-7-quinolyl]oxy]propanoyl]pyrrolidin-3-yl]urea]
23 | 20 to 100 | < 10 | C[C@@H](Oc1ccc2c(-c3c(Cl)cc(F)cc3Cl)ccnc2n1)C(=O)N1CCC[C@H](CC(=O)O)C1 [Compound 220, 2-[(3R)-1-[(2R)-2-[[5-(2,6-dichloro-4-fluoro-phenyl)-1,8-naphthyridin-2-yl]oxy]propanoyl]-3-piperidyl]acetic acid]
24 | 100 to 1000 | 10 to 50 | CC1CCCC(C)N1C(=O)[C@@H](C)Oc1ccc2c(-c3ccc(F)cc3Cl)ccnc2c1 (stereo partly drawn) [Compound 211, (2R)-2-[[4-(2-chloro-4-fluoro-phenyl)-7-quinolyl]oxy]-1-(2,6-dimethyl-1-piperidyl)propan-1-one]
25 | 20 to 100 | < 10 | CC1CCCCN1C(=O)[C@@H](C)Oc1ccc2c(-c3ccc(F)cc3Cl)ccnc2c1 (mixture of isomers) [Compound 200, rac-(2R)-2-[[4-(2-chloro-4-fluoro-phenyl)-7-quinolyl]oxy]-1-(2-methyl-1-piperidyl)propan-1-one]
26 | 20 to 100 | < 10 | C[C@@H](Oc1ccc2c(-c3ccc(F)cc3Cl)ccnc2c1)C(=O)N1CCC[C@@](C)(C(=O)O)C1 [Compound 198, (3R)-1-[(2R)-2-[[4-(2-chloro-4-fluoro-phenyl)-7-quinolyl]oxy]propanoyl]-3-methyl-piperidine-3-carboxylic acid]
27 | 20 to 100 | < 10 | C[C@@H](Oc1ccc2c(-c3c(Cl)cc(F)cc3Cl)ccnc2c1)C(=O)N1CCCC[C@@H]1C [Compound 199, (2R)-2-[[4-(2,6-dichloro-4-fluoro-phenyl)-7-quinolyl]oxy]-1-[(2S)-2-methyl-1-piperidyl]propan-1-one]

Source: patent US12281079B2, “Quinoline derivatives, processes for their preparation and uses thereof for the treatment of cancer” (Lead Discovery Center GmbH, priority 2019, dated 2025)
